≈ marks a conversion by molar mass, not a printed value.
Key:
HT-29 [1] = experiment: In vitro cytotoxicity against human colon adenocarcinoma cell line HT-29; assay type: functional; conditions: read-out: ED50 (the source's name)
A549 [2] = experiment: In vitro cytotoxicity against human lung carcinoma cell line A-549; assay type: functional; conditions: read-out: ED50 (the source's name)
Malme-3M [3] = experiment: In vitro cytotoxicity against human melanoma, metastatic to lung using MTT assay (MALME-3M); assay type: functional; conditions: read-out: ED50 (the source's name)
MCF7 [4] = experiment: In vitro cytotoxicity against human breast carcinoma cell line MCF-7; assay type: functional; conditions: read-out: ED50 (the source's name)
SK-MEL-5 [5] = experiment: In vitro cytotoxicity against human melanoma, metastatic to auxiliary node (SK-MEL-5); assay type: functional; conditions: read-out: ED50 (the source's name)
Malme-3M [6] = experiment: In vitro cytotoxicity against human melanoma, metastatic to lung using MTT assay (MALME-3M) at 6.8*10e-5M; assay type: functional
A549 [7] = experiment: In vitro cytotoxicity against human lung carcinoma cell line A-549 at 3.6*10e-5 M; assay type: functional; conditions: A549, read-out: ED50
MCF7 [8] = experiment: In vitro cytotoxicity against human breast carcinoma cell line MCF-7 at 4.4*10e-5M; assay type: functional; conditions: MCF7, read-out: ED50
HT-29 [9] = experiment: In vitro cytotoxicity against human colon adenocarcinoma cell line HT-29 at 5.7*10e-5M; assay type: functional; conditions: HT-29, read-out: ED50
SK-MEL-5 [10] = experiment: In vitro cytotoxicity against human melanoma, metastatic to auxiliary node (SK-MEL-5) at 5.1*10e-5M; assay type: functional; conditions: SK-MEL-5, read-out: ED50
SK-MEL-5 [11] = experiment: In vitro cytotoxicity against human melanoma, metastatic to auxiliary node (SK-MEL-5) at 3.2*10e-5M; assay type: functional; conditions: read-out: ED50 (the source's name)
Malme-3M [12] = experiment: In vitro cytotoxicity against human melanoma, metastatic to lung using MTT assay (MALME-3M) at 5.5*10e-5M; assay type: functional; conditions: read-out: ED50 (the source's name)
HT-29 [13] = experiment: In vitro cytotoxicity against human colon adenocarcinoma cell line HT-29 at 3.0*10e-5 M; assay type: functional; conditions: read-out: ED50 (the source's name)
NRKE [14] = experiment: In vitro cytotoxicity expressed as % cell kill against normal rat kidney epithelial cell (NRKE) at a dose of 33 uM; assay type: functional
NRK [15] = experiment: In vitro cytotoxicity expressed as % cell kill against rat transformed cell line K/1-NRK at a dose of 3.3 uM; assay type: functional
MCF7 [16] = experiment: In vitro cytotoxicity against human breast carcinoma cell line MCF-7 at 4.9*10e-5M; assay type: functional; conditions: read-out: ED50 (the source's name)
A549 [17] = experiment: In vitro cytotoxicity against human lung carcinoma cell line A-549 at 6.1*10e-5 M; assay type: functional; conditions: read-out: ED50 (the source's name)
Mus musculus [18] = experiment: Percent inhibition was determined against H/1/2-NRK tumor at a dose of 150 mg/kg/day in mice; assay type: functional
Mus musculus [19] = species on record: Mus musculus; experiment: Maximum tolerated dose (MTD) was reported; assay type: functional
HT-29 [20] = experiment: In vitro cytotoxicity against human colon adenocarcinoma cell line HT-29 at 1.2*10e-5M; assay type: functional; conditions: read-out: ED50 (the source's name)
NRKE [21] = experiment: In vitro cytotoxicity expressed as % cell kill against normal rat kidney epithelial cell (NRKE) at a dose of 3.3 uM; assay type: functional
SK-MEL-5 [22] = experiment: In vitro cytotoxicity against human melanoma, metastatic to auxiliary node (SK-MEL-5) at 6.3*10e-5M; assay type: functional; conditions: read-out: ED50 (the source's name)
NRK [23] = experiment: In vitro cytotoxicity expressed as % cell kill against rat transformed cell line H/1/2-NRK at a dose of 33 uM; assay type: functional
Mus musculus [24] = experiment: Percent inhibition was determined against K/1-NRK tumor at a dose of 150 mg/kg/day in mice; assay type: functional
NRK [25] = experiment: In vitro cytotoxicity expressed as % cell kill against rat transformed cell line H/1/2-NRK at a dose of 3.3 uM; assay type: functional
Mus musculus [26] = experiment: Percent inhibition was determined against K/1-NRK tumor at a dose of 75 mg/kg/day in mice; assay type: functional
NRK [27] = experiment: In vitro cytotoxicity expressed as % cell kill against ras transformed cell line K/1-NRK at a dose of 33 uM; assay type: functional, Rattus norvegicus
HT-29 [28] = experiment: In vitro cytotoxicity against human colon adenocarcinoma cell line HT-29 at 1.6*10e-5M; assay type: functional; conditions: read-out: ED50 (the source's name)
MCF7 [29] = experiment: In vitro cytotoxicity against human breast carcinoma cell line MCF-7 at 8.1*10e-5M; assay type: functional; conditions: read-out: ED50 (the source's name)
A549 [30] = experiment: In vitro cytotoxicity against human lung carcinoma cell line A-549 at 7.4*10e-5 M; assay type: functional; conditions: read-out: ED50 (the source's name)
A549 [31] = experiment: In vitro cytotoxicity against human lung carcinoma cell line A-549 at 5.0*10e-5M; assay type: functional; conditions: read-out: ED50 (the source's name)
Malme-3M [32] = experiment: In vitro cytotoxicity against human melanoma, metastatic to lung using MTT assay (MALME-3M) at 4.7*10e-5M; assay type: functional; conditions: read-out: ED50 (the source's name)
MCF7 [33] = experiment: In vitro cytotoxicity against human breast carcinoma cell line MCF-7 at 5.6*10e-5M; assay type: functional; conditions: read-out: ED50 (the source's name)
SK-MEL-5 [34] = experiment: In vitro cytotoxicity against human melanoma, metastatic to auxiliary node (SK-MEL-5) at 2.6*10e-5M; assay type: functional; conditions: read-out: ED50 (the source's name)
HT-29 [35] = experiment: In vitro cytotoxicity against human colon adenocarcinoma cell line HT-29 at 5.9*10e-5M; assay type: functional; conditions: read-out: ED50 (the source's name)
P388 = experiment: In vitro cytotoxicity against P388 cell line; 10e-7-10e-9 ug/mL; assay type: functional; conditions: Mus musculus, read-out: ED50 (the source's name)

CCCCCCCC[C@H]1CC[C@@]2(C)C3CC[C@@]4(C)Cc5nc6c(nc5C[C@]4(C)[C@@]3(C)CC[C@]12C)C[C@]1(C)CCC2[C@](C)(CC[C@]3(C)[C@@H](CCCCCCCC)CC[C@@]23C)[C@@]1(C)C6 (stereo partly specified)
EC50 (HT-29 [1]): > 100 µg/mL | EC50 (A549 [2]): > 100 µg/mL | EC50 (Malme-3M [3]): > 100 µg/mL | EC50 (MCF7 [4]): > 100 µg/mL | EC50 (SK-MEL-5 [5]): > 100 µg/mL

C[C@@]12CCC3[C@](C)(CC[C@]4(C)[C@@H](O)CC[C@@]34C)[C@@]1(C)Cc1nc3c(nc1C2)C(N=[N+]=[N-])[C@@]1(C)[C@@H](CCC2[C@]1(C)CC[C@]1(C)[C@@H](O)CC[C@@]21C)C3 (stereo partly specified)
EC50 (Malme-3M [6]; read-out: ED50): 42 µg/mL (≈ 61.4 µM) | EC50 (A549 [7]): 22 µg/mL (≈ 32.2 µM) | EC50 (MCF7 [8]): 27 µg/mL (≈ 39.5 µM) | EC50 (HT-29 [9]): 35 µg/mL (≈ 51.2 µM) | EC50 (SK-MEL-5 [10]): 31 µg/mL (≈ 45.3 µM)

C[C@H]1CC[C@@]2(OC1)O[C@H]1C[C@@]3(C)C4CC[C@@]5(C)Cc6nc7c(nc6C[C@]5(C)C4=C(O)C(=O)[C@]3(C)[C@H]1[C@@H]2C)C[C@]1(C)CCC2C(=C(O)C(=O)[C@]3(C)[C@@H]4[C@H](C[C@@]23C)O[C@]2(CC[C@H](C)CO2)[C@H]4C)[C@@]1(C)C7 (stereo partly specified)
EC50 (SK-MEL-5 [11]): 28 µg/mL (≈ 30 µM) | EC50 (Malme-3M [12]): 53 µg/mL (≈ 56.8 µM) | EC50 (A549 [2]): > 100 µg/mL | EC50 (HT-29 [13]): 26 µg/mL (≈ 27.9 µM) | EC50 (MCF7 [4]): > 100 µg/mL

C[C@@]12CCC3[C@](C)(CC[C@]4(C)[C@@H](O)CC[C@@]34C)[C@@]1(C)Cc1nc3c(nc1C2)C[C@@]1(C)[C@@](C)(CCC2[C@]1(C)CC[C@]1(C)[C@@H](O)CC[C@@]21C)C3 (stereo partly specified)
Cell kill (NRKE [14]): 100% | Cell kill (NRK [15]): 100% | EC50 (MCF7 [16]): 28 µg/mL (≈ 42.6 µM) | EC50 (Malme-3M [6]; read-out: ED50 (the source's name)): 39 µg/mL (≈ 59.4 µM) | EC50 (A549 [17]): 35 µg/mL (≈ 53.3 µM) | inhibition in vivo at 150 mg/kg/day (Mus musculus [18]): 59% | MTD (Mus musculus [19]): 150 mg/kg/day | EC50 (HT-29 [20]): 7 µg/mL (≈ 10.7 µM) | Cell kill (NRKE [21]): 100% | EC50 (SK-MEL-5 [22]): 36 µg/mL (≈ 54.8 µM) | Cell kill (NRK [23]): 100% | inhibition in vivo at 150 mg/kg/day (Mus musculus [24]): 51% | Cell kill (NRK [25]): 100% | inhibition in vivo at 75 mg/kg/day (Mus musculus [26]): 28% | Cell kill (NRK [27]): 100%

C[C@@]12CCC3[C@](C)(CC[C@]4(C)C(=O)CC[C@@]34C)[C@@]1(C)Cc1nc3c(nc1C2)C[C@@]1(C)[C@@](C)(CCC2[C@]1(C)CC[C@]1(C)C(=O)CC[C@@]21C)C3 (stereo partly specified)
EC50 (HT-29 [28]): 94 µg/mL (≈ 144 µM) | EC50 (MCF7 [29]): 46 µg/mL (≈ 70.4 µM) | EC50 (Malme-3M [3]): > 100 µg/mL | EC50 (A549 [30]): 42 µg/mL (≈ 64.3 µM) | EC50 (SK-MEL-5 [5]): > 100 µg/mL

C[C@@]12CCC3[C@](C)(CC[C@]4(C)C5(CC[C@@]34C)OCCO5)[C@@]1(C)Cc1nc3c(nc1C2)C[C@@]1(C)[C@@](C)(CCC2[C@]1(C)CC[C@]1(C)C4(CC[C@@]21C)OCCO4)C3 (stereo partly specified)
EC50 (A549 [31]): 33 µg/mL (≈ 44.5 µM) | EC50 (Malme-3M [32]): 31 µg/mL (≈ 41.8 µM) | EC50 (MCF7 [33]): 37 µg/mL (≈ 49.9 µM) | EC50 (SK-MEL-5 [34]): 17 µg/mL (≈ 22.9 µM) | EC50 (HT-29 [35]): 39 µg/mL (≈ 52.6 µM)

C[C@@H]1[C@]2(O[C@H]3C=C4C5CC[C@@]6(C)Cc7nc8c(nc7C[C@]6(C)[C@@]5(C)C[C@@H](O)[C@]4(C)[C@]31O)C[C@]1(C)CCC3C4=CC[C@@H]5[C@H](C)[C@@]6(OC[C@]45C(=O)C[C@@H]3[C@@]1(C)C8)OC(C)(C)C[C@H]6O)O[C@](C)(CO)C[C@H]2O (stereo partly specified) [CEPHALOSATIN]
EC50 (P388): 0.001 ng/mL (≈ 1.05e-06 µM)

Reference: ChEMBL document CHEMBL1126465, “Synthesis and pharmacological evaluation of nonacyclic and trisdecacyclic pyrazines related to cephalostatin” (1992)
